As usually defined, the IC20 is the concentration needed for an effect of 20%.

These results are taken from patent US20110118127A1, “MARKER GENES FOR SCREENING OF DRUG-INDUCED TOXICITY IN HUMAN CELLS AND SCREENING METHOD USING THE SAME” (priority 2009, published 2011).

Series [1] is described as follows: in vitro. The following applies: human.
Description: (§1) Human cell lines, BEAS-2B (ATCC, USA), JEG-3 (Korean Cell Line Bank, Korea) and HK-2 (Korean Cell Line Bank, Korea) were cultured in T 75 flask containing DMEM (Gibco-BRL, USA) supplemented with 10% FBS at the concentration of 5×10^5 cells/ml. THLE-3 cells were cultured in BEGM (Gibco-BRL, USA) supplemented with 10% FBS. HUVEC cells (ATCC, USA) were cultured in T 75 flask containing EGM-2 (CAMBREX, USA) supplemented with 5% FBS at the concentration of 5×10^5 cells/ml. […] Those drugs were dissolved in DMSO and water. The concentration of vehicle was up to 0.1% in every experiment.
(§2) MTT assay was performed with BEAS-2B, JEG-3, HK-2, THLE-3 and HUVEC according to the method of Mossman et al (J. Immunol. Methods, 65, 55-63, 1983). The cells (Table 2) in a 24-well plate were treated with each drug dissolved in DMSO or water. […] Then, the medium was eliminated and the formed formazan crystal was dissolved in 500 μl of DMSO. The mixture was aliquoted in a 96-well plate and OD54o was measured.
Series [2] is described as follows: Cytotoxicity test (MTT assay) in THLE-3. To be noted: human.
Description: as §1, §2
Series [3] relates to HepG2. Put plainly: Cytotoxicity test (MTT assay) in HepG2. It counts as cell-based, human. The following applies: Table 11; HepG2 40 × 10^4 cells/well, 48 h; read-out: Cytotoxicity IC20 Conc.
Description: (§3) The cells (Table 2) in a 24-well plate were treated with each drug dissolved in DMSO or water. 24 and 48 hours later, 5 mg/μl of MTT (3-[4,5-dimethylthiazol-2-yl]-2,5-diphenyltetra zolium bromide) was added thereto, followed by culture at 37 for 3 hours. Then, the medium was eliminated and the formed formazan crystal was dissolved in 500 μl of DMSO. The mixture was aliquoted in a 96-well plate and OD540 was measured.
The nature of series [4]: in vitro. To be noted: human. The source holds these as a separate data set.
A short description of series [5]: Cytotoxicity test (MTT assay) in HepG2. It counts as cell-based, human. The following applies: human.
Description: as §3
The nature of series [6]: Cytotoxicity test (MTT assay) in HUVEC. It counts as cell-based. To be noted: human, HUVEC 10 × 10^4 cells/well, survival inhibited 20%, read-out: Cytotoxicity IC20 Conc. For orientation: Formazan colour is commonly taken as a measure of viable cells.
Description: as §1, §2
In series [7] the test system is THLE-3. Put plainly: Cytotoxicity test (MTT assay) in THLE-3. To be noted: read-out: Cytotoxicity IC20 Conc.; THLE-3 3 × 10^4 cells/well, 3 h; survival inhibited 20%.
Description: as §1, §2
The test system of series [8] is HK-2. To be noted: human, 24 h.
Description: (§4) Human cell lines, BEAS-2B (ATCC, USA), JEG-3 (Korean Cell Line Bank, Korea) and HK-2 (Korean Cell Line Bank, Korea) were cultured in T 75 flask containing DMEM (Gibco-BRL, USA) supplemented with 10% FBS at the concentration of 5×10^5 cells/ml. […] Those drugs were dissolved in DMSO and water. The concentration of vehicle was up to 0.1% in every experiment.
(§5) MTT assay was performed with BEAS-2B, JEG-3, HK-2, THLE-3 and HUVEC according to the method of Mossman et al (J. Immunol. Methods, 65, 55-63, 1983). The cells (Table 2) in a 24-well plate were treated with each drug dissolved in DMSO or water. 48 hours later, 5 mg/ml of MTT (3-[4,5-dimethylthiazol-2-yl]-2,5-diphenyltetra zolium bromide) was added thereto, followed by culture at 37 for 3 hours. Then, the medium was eliminated and the formed formazan crystal was dissolved in 500 μl of DMSO. The mixture was aliquoted in a 96-well plate and OD54o was measured.
(§6) MTT assay was performed with BEAS-2B, JEG-3, HK-2 and HepG2 according to the method of Mossman et al (J. Immunol. Methods, 65, 55-63, 1983). The cells (Table 2) in a 24-well plate were treated with each drug dissolved in DMSO or water. 24 and 48 hours later, 5 mg/μl of MTT (3-[4,5-dimethylthiazol-2-yl]-2,5-diphenyltetra zolium bromide) was added thereto, followed by culture at 37 for 3 hours. […] The mixture was aliquoted in a 96-well plate and OD540 was measured.
The subject of series [9] is JEG-3. The following applies: human, 48 h.
Description: as §4, §5
(§7) MTT assay was performed with BEAS-2B, JEG-3, HK-2 and HepG2 according to the method of Mossman et al (J. Immunol. Methods, 65, 55-63, 1983). The cells (Table 2) in a 24-well plate were treated with each drug dissolved in DMSO or water. 24 and 48 hours later, 5 mg/μl of MTT (3-[4,5-dimethylthiazol-2-yl]-2,5-diphenyltetra zolium bromide) was added thereto, followed by culture at 37 for 3 hours. Then, the medium was eliminated and the formed formazan crystal was dissolved in 500 μl of DMSO. The mixture was aliquoted in a 96-well plate and OD540 was measured.
Series [10] has as its system JEG-3. The experiment in a line: Cytotoxicity test (MTT assay) in JEG-3. The following applies: Table 11; JEG-3 3 × 10^4 cells/well, 48 h.
Description: as §4, §5, §7
The test system of series [11] is HK-2. Put plainly: Cytotoxicity test (MTT assay) in HK-2. To be noted: HK-2 2.3 × 10^4 cells/well, 24 h; survival inhibited 30%.
Description: as §4, §5, §6

Converted amounts (≈) assume the structure as drawn. Like-named read-outs stand apart in the source and are kept apart here.

Consider `O=[N+]([O-])c1ccc2c(c1)Cc1ccccc1-2` [2-nitrofluorene], for which the 20% effect level in series [1] (IC20 at 3 h) was put at 80.8 µM.

Consider `O=[N+]([O-])c1cc[n+]([O-])c2ccccc12` [4-nitroquinoline-N-oxide], for which it took 0.83 µM to reach the 20% level in [2] (IC20 at 3 h).

Turning to `CC(=O)Nc1ccc(O)cc1` [Acetaminophene], the IC20 in series [3] was found to be 11000 µM.

Regarding `CCCCc1oc2ccccc2c1C(=O)c1cc(I)c(OCCN(CC)CC)c(I)c1` [Amiodarone], the IC20 at 48 h in series [4] worked out at 29.4 µM.

For `c1ccc2c(c1)cc1ccc3cccc4ccc2c1c34` [Benzo(a)pyrene], the IC20 at 48 h in series [5] was 8.35 µM.

In the case of `NC(=O)N1c2ccccc2C=Cc2ccccc21` [Carbamazepine], in series [4], it took 324 µM to reach the 20% level (IC20 at 48 h).

Regarding `COc1cccc2c1C(=O)c1c(O)c3c(c(O)c1C2=O)C[C@@](O)(C(C)=O)C[C@@H]3O[C@H]1C[C@H](N)[C@H](O)[C@H](C)O1` [Daunorubicin], the IC20 at 48 h in series [6] was determined as 0.191 mg/L (≈ 0.362 µM).

With `COc1cccc2c1C(=O)c1c(O)c3c(c(O)c1C2=O)C[C@@](O)(C(=O)CO)C[C@@H]3O[C@H]1C[C@H](N)[C@H](O)[C@H](C)O1` [Doxorubicin], the IC20 at 48 h in series [6] is 0.083 mg/L (≈ 0.153 µM).

Take `NC(=O)/C(=C\c1ccc([N+](=O)[O-])o1)c1ccco1` [Furylfuramide]: in series [7], the IC20 was determined as 243 µM.

As to `CC(C)Cc1ccc(C(C)C(=O)O)cc1` (stereo not shown) [Ibuprofen], the “Cytotoxicity IC30 Conc.” value in series [8] amounted to 1650 mg/L.

Take `CN(Cc1cnc2nc(N)nc(N)c2n1)c1ccc(C(=O)N[C@@H](CCC(=O)O)C(=O)O)cc1` [Methotrexate]: in series [9], the “Cytotoxicity IC30 Conc.” value was found to be 4750 µM. In series [4], this compound came in with an IC20 at 48 h of 0.144 µM.

As for `COS(C)(=O)=O` [Methylmethanesulfonate, methylmethanesulfonate], in series [1], the IC20 at 3 h amounted to 510 µM.

`CN(N=O)C(N)=O` [N-nitroso-N-methylurea] gave an IC20 at 3 h in series [2] of 2090 µM.

As to `O=C1CN(/N=C/c2ccc([N+](=O)[O-])o2)C(=O)N1` [Nitrofurantoin], it took 89.5 µM to reach the 20% level in series [4] (IC20 at 48 h).

Consider `O=C1CCC(N2C(=O)c3ccccc3C2=O)C(=O)N1` (stereo not shown) [Thalidomide], for which, in series [9], the “Cytotoxicity IC30 Conc.” value came out at 4283 µM.

As to `CCCC(CCC)C(=O)O` [Valproic acid], the “Cytotoxicity IC30 Conc.” value in series [9] came to 7380 µM.

For `CC(=O)CC(c1ccccc1)c1c(O)c2ccccc2oc1=O` (stereo not shown) [Warfarin], the “Cytotoxicity IC30 Conc.” value in [10] came out at 8160 µM.

Consider Gentamycin, for which, in series [11], the “Cytotoxicity IC30 Conc.” value was 3440 mg/L.
